# According to patent US20070232681A1, “Compounds Having Crth2 Antagonist Activity” (Oxagen Limited, priority 2003, published 2007):
# What was measured:
# CRTH2 [1] = molecular target: T1, CRTH2 (Homo sapiens, UniProt Q9Y5Y4); test: [3H]PGD2 radioligand binding on CHO/CRTH2 cell membranes; conditions: competition versus [3H]PGD2, CHO/CRTH2 membranes
# T1 construct: expressed in transfected cells; host or cells: Chinese Hamster Ovary (CHO) cells, G418 selected
# T1 sequence (Q9Y5Y4 1-395): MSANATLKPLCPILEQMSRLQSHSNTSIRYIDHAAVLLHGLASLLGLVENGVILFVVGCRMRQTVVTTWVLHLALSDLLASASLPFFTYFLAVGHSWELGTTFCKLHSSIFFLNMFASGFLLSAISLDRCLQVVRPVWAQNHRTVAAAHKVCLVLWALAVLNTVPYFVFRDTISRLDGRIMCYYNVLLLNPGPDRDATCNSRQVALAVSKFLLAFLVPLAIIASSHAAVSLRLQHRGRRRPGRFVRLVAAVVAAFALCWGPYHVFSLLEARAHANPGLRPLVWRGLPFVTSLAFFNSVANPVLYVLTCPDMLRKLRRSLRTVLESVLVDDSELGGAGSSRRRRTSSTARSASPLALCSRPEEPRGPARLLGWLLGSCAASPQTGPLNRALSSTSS
# Method: (§1) Chinese Hamster Ovary cells were transfected with CRTH2 or DP receptors (CHO/CRTH2 and CHO/DP) and were maintained in culture in a humidified atmosphere at 37° C. (5% CO2) in Minimum Essential Medium (MEM) supplemented with 10% foetal bovine serum, 2 mM glutamine, and 1 mg ml^−1 active G418. The cells were passaged every 2-3 days. For radioligand binding assay, cells were prepared in triple-layer flasks or in 175 cm^2 square flasks (for membrane preparation). For calcium mobilisation assay, cells were grown in a 96 well plate 24 h prior to the assay at a density of 80,000 cells per well.
# (§2) Membranes were prepared either from CHO/CRTH2 and CHO/DP cells, or from platelets (as a source of TP receptors). CHO cells grown to confluency were washed with PBS and detached using a Versene solution (15 ml per flask). When the cells were grown in 175 cm^2 square flask, they were collected by scrapping in PBS. The cell suspensions were centrifuged (1,700 rpm, 10 min, 4° C.) and resuspended in 15 ml of buffer (1×HBSS, supplemented with 10 mM HEPES, pH 7.3). Cell suspensions were then homogenised using an Ultra Turrax at setting 4-6 for 20 s. The homogenate was centrifuged at 1,700 rpm for 10 min and the supernatant was collected and centrifuged at 20,000 rpm for 1 h at 4° C. The resulting pellet was resuspended in buffer and stored at −80° C. in aliquots of 200-500 μl. The protein concentration was determined by the method of Bradford (1976), using bovine serum albumin as standard. The platelets were washed by centrifugation at 600×g for 10 min and resuspended in ice-cold assay buffer (10 mM Tris-HCl, pH 7.4, 5 mM Glucose, 120 mM NaCl, 10 μM indomethacin) and directly centrifuged at 20,000 rpm for 30 min at 4° C. The resulting pellet was treated as described above.
# (§3) [3H]PGD2 (160 Ci/mmol) binding experiments were performed on membranes prepared as described above. Assays were performed in a final volume of 100 μl of buffer (1×HBSS/HEPES 10 mM, pH 7.3). Cell membranes (15 μg). Cell membranes […] were preincubated at room temperature with varying concentration of competing ligand for 15 min. [3H]PGD2 ([…]) was then added and the incubation continued for a further one hour at room temperature. The reaction was terminated by the addition of 200 μl ice-cold assay buffer to each well, followed by rapid filtration through Whatman GF/B glass fibre filters using a Unifilter Cell harvester (PerkinElmer Life Sciences) and six washes of 300 μl of ice-cold buffer. The Unifilter plates were dried at room temperature for at least 1 h and the radioactivity retained on the filters was determined on a Beta Trilux counter (PerkinElmer Life Sciences), following addition of 40 μl of Optiphase Hi-Safe 3 (Wallac) liquid scintillation. Non specific binding was defined in the presence of […] unlabelled PGD2. Assays were performed in duplicate.
# DP receptor = molecular target: T2, DP receptor (Homo sapiens, UniProt Q13258); test: [3H]PGD2 radioligand binding on CHO/DP cell membranes; conditions: competition versus [3H]PGD2, CHO/DP membranes
# T2 construct: expressed in transfected cells; host or cells: Chinese Hamster Ovary (CHO) cells, G418 selected
# T2 sequence (Q13258 1-359): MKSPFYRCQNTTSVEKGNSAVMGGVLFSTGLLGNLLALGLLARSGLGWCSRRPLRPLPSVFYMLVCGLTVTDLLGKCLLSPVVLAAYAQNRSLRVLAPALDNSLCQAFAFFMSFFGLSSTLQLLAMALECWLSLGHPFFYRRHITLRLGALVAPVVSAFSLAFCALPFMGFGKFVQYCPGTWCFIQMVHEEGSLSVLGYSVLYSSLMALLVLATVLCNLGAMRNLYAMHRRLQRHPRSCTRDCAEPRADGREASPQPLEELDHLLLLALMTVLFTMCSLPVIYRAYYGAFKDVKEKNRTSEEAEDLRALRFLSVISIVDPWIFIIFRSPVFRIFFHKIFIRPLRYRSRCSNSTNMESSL
# Method: as §1, §2, §3
# CRTH2 [2] = molecular target: T1, CRTH2; test: Calcium mobilisation assay in CHO/CRTH2 cells (PGD2-induced calcium flux); assay type: cell-based; conditions: for IC50: inhibition of PGD2-induced calcium flux, read-out: CRTH2 Ca flux IC50
# Method: as §1
# Cells were seeded onto poly-D-lysine coated 96-well plates at a density of 80,000 cells per well and incubated at 37° C. overnight to allow the cells to adhere. Cells were washed twice with HBSS and incubated for 1 h at 37° C. in 100 μl HBSS and 100 μl calcium-3-dye (Molecular Devices) solution, supplemented with 4 mM probenecid. Changes in fluorescence were monitored over a 50 s time course with agonist addition at 17s using a Flexstation (Molecular Devices).
SMILES,Ki (CRTH2 [1]),Ki (DP receptor),IC50 (CRTH2 [2]),"EC50 (CRTH2 [2]; agonist, n=3, read-out: EC50 for increase in intracellular Ca2+ mobilisation)"
"CCCCS(=O)(=O)c1c(C)n(CC(=O)O)c2ccc(F)cc12 [Compound 1, [3-(Butane-1-sulfonyl)-5-fluoro-2-methyl-indol-1-yl]-acetic acid]",192 nM,> 10000 nM,280 nM,–
Cc1c(S(=O)(=O)c2ccc(-c3ccccc3)cc2)c2cc(F)ccc2n1CC(=O)O [Compound 2],75 nM,> 10000 nM,163 nM,–
"Cc1c(S(=O)(=O)CC(=O)O)c2cc(F)ccc2n1CC(=O)O [Compound 3, (3-Carboxymethanesulfonyl-5-fluoro-2-methyl-indol-1-yl)-acetic acid]",2000 nM,–,–,–
"Cc1c(S(=O)(=O)CC(N)=O)c2cc(F)ccc2n1CC(=O)O [Compound 4, (3-Carbamoylmethanesulfonyl-5-fluoro-2-methyl-indol-1-yl)-acetic acid]",2300 nM,–,–,–
"Cc1c(S(=O)(=O)CCS(C)(=O)=O)c2cc(F)ccc2n1CC(=O)O [Compound 5, [5-Fluoro-3-(2-methanesulfonyl-ethanesulfonyl)-2-methyl-indol-1-yl]-acetic acid]",89 nM,> 10000 nM,268 nM,–
"Cc1c(S(=O)(=O)c2nc3ccccc3s2)c2cc(F)ccc2n1CC(=O)O [Compound 6, [3-(Benzothiazole-2-sulfonyl)-5-fluoro-2-methyl-indol-1-yl]-acetic acid]",209 nM,–,345 nM,–
"Cc1c([S+]([O-])c2nc3ccccc3s2)c2cc(F)ccc2n1CC(=O)O (stereo not shown) [Compound 7, [3-(Benzothiazole-2-sulfinyl)-5-fluoro-2-methyl-indol-1-yl]-acetic acid]",54 nM,–,163 nM,–
"Cc1c(S(=O)(=O)c2ccc3ccccc3n2)c2cc(F)ccc2n1CC(=O)O [Compound 8, [5-Fluoro-2-methyl-3-(quinoline-2-sulfonyl)-indol-1-yl]-acetic acid]",249 nM,–,330 nM,–
"Cc1c(S(=O)(=O)c2cccc3cccnc23)c2cc(F)ccc2n1CC(=O)O [Compound 9, [5-Fluoro-2-methyl-3-(quinolin-8-ylsulfonyl)-indol-1-yl]-acetic acid]",254 nM,> 10000 nM,–,–
"Cc1c(S(=O)(=O)Cc2ccccc2)c2cc(F)ccc2n1CC(=O)O [Compound 10, (5-Fluoro-2-methyl-3-phenylmethanesulfonyl-1H-indol-1-yl)-acetic acid]",6 nM,–,79 nM,–
"Cc1c(S(=O)(=O)Nc2ccc(Cl)cc2)c2cc(F)ccc2n1CC(=O)O [Compound 11, [3-(4-Chloro-phenylsulfamoyl)-5-fluoro-2-methyl-indol-1-yl]-acetic acid]",51 nM,> 10000 nM,197 nM,–
"Cc1c(S(=O)(=O)Nc2cccc(Cl)c2)c2cc(F)ccc2n1CC(=O)O [Compound 12, [3-(3-Chloro-phenylsulfamoyl)-5-fluoro-2-methyl-indol-1-yl]-acetic acid]",45 nM,> 10000 nM,82 nM,–
"Cc1c(S(=O)(=O)Nc2ccc(F)cc2)c2cc(F)ccc2n1CC(=O)O [Compound 13, [3-(4-Fluoro-phenylsulfamoyl)-5-fluoro-2-methyl-indol-1-yl]-acetic acid]",182 nM,–,1650 nM,–
"Cc1c(S(=O)(=O)Nc2ccccc2Cl)c2cc(F)ccc2n1CC(=O)O [Compound 14, [3-(2-Chloro-phenylsulfamoyl)-5-fluoro-2-methyl-indol-1-yl]-acetic acid]",225 nM,–,390 nM,–
"Cc1c(S(=O)(=O)NCc2ccccc2)c2cc(F)ccc2n1CC(=O)O [Compound 15, (3-Benzylsulfamoyl-5-fluoro-2-methyl-indol-1-yl)-acetic acid]",278 nM,> 10000 nM,–,–
"COc1ccccc1NS(=O)(=O)c1c(C)n(CC(=O)O)c2ccc(F)cc12 [Compound 16, [5-Fluoro-3-(2-methoxy-phenylsulfamoyl)-2-methyl-indol-1-yl]-acetic acid]",771 nM,> 10000 nM,–,–
"COc1ccc(NS(=O)(=O)c2c(C)n(CC(=O)O)c3ccc(F)cc23)cc1 [Compound 17, [5-Fluoro-3-(4-methoxy-phenylsulfamoyl)-2-methyl-indol-1-yl]-acetic acid]",1450 nM,> 10000 nM,–,–
"Cc1c(S(=O)(=O)Nc2ccccc2)c2cc(F)ccc2n1CC(=O)O [Compound 18, (5-Fluoro-2-methyl-3-phenylsulfamoyl-indol-1-yl)-acetic acid]",236 nM,> 10000 nM,–,–
"Cc1c(S(=O)(=O)NCc2ccc(Cl)c(Cl)c2)c2cc(F)ccc2n1CC(=O)O [Compound 19, [3-(3,4-Dichloro-benzylsulfamoyl)-5-fluoro-2-methyl-indol-1-yl]-acetic acid]",181 nM,> 10000 nM,–,–
"COc1cccc(NS(=O)(=O)c2c(C)n(CC(=O)O)c3ccc(F)cc23)c1 [Compound 20, [5-Fluoro-3-(3-methoxy-phenylsulfamoyl)-2-methyl-indol-1-yl]-acetic acid]",531 nM,> 10000 nM,–,–
"Cc1cccc(NS(=O)(=O)c2c(C)n(CC(=O)O)c3ccc(F)cc23)c1 [Compound 21, (5-Fluoro-2-methyl-3-m-tolylsulfamoyl-indol-1-yl)-acetic acid]",176 nM,> 10000 nM,1060 nM,–
"Cc1ccc(NS(=O)(=O)c2c(C)n(CC(=O)O)c3ccc(F)cc23)cc1 [Compound 22, (5-Fluoro-2-methyl-3-p-tolylsulfamoyl-indol-1-yl)-acetic acid]",1240 nM,> 10000 nM,–,–
"Cc1c(S(=O)(=O)NCc2ccc(Cl)cc2)c2cc(F)ccc2n1CC(=O)O [Compound 23, [3-(4-Chloro-benzylsulfamoyl)-5-fluoro-2-methyl-indol-1-yl]-acetic acid]",164 nM,> 10000 nM,–,–
"Cc1c(S(=O)(=O)N(C)Cc2ccccc2)c2cc(F)ccc2n1CC(=O)O [Compound 24, [3-(Benzyl-methyl-sulfamoyl)-5-fluoro-2-methyl-indol-1-yl]-acetic acid]",119 nM,> 10000 nM,–,–
"Cc1c(S(=O)(=O)Nc2cccnc2)c2cc(F)ccc2n1CC(=O)O [Compound 25, [5-Fluoro-2-methyl-3-(pyridin-3-ylsulfamoyl)-indol-1-yl]-acetic acid]",4250 nM,> 10000 nM,–,–
"CCCCC[C@H](O)/C=C/[C@H]1C(=O)C[C@H](O)[C@@H]1C/C=C\CCCC(=O)O [PGD2, prostaglandin D2, reference compound]",–,–,–,2.4 nM
